From PMC3471028, “A Laccase with Antiproliferative and HIV-I Reverse Transcriptase Inhibitory Activities from the Mycorrhizal Fungus Agaricus placomyces” (Journal of Biomedicine and Biotechnology, 2012) come the findings set out here.

Where a name gives a salt, the structure may show the parent alone.

In general, Km refers to the substrate concentration at which the rate is half of its maximum.

In this test the test system is T1, A. placomyces laccase.
T1 construct: gene EC 1.10.3.2; native, purified from fruiting bodies; 68 kDa monomer
In words: spectrophotometric oxidation assay, Lineweaver-Burk plot. Particulars: 50 mM sodium acetate, pH 5.2, 30°C. It is filed as biochemical, Agaricus placomyces.

For `CCn1c(=NN=c2sc3cc(S(=O)(=O)O)ccc3n2CC)sc2cc(S(=O)(=O)O)ccc21` [ABTS, 2,7′-azinobis[3-ethylbenzothiazolone-6-sulfonic acid] diammonium salt], the Michaelis-Menten constant (Km) was 775 µM. On to `Oc1ccc(O)cc1` [hydroquinone], for which the Km was 392 µM.
